# Experimental data as given in publication PMC8248901 (Journal of clinical haematology, 2021).
# Read-outs that look alike come from different tables or passages of the source.
# Key:
# p38γ = biological target: T1, p38γ (Homo sapiens, UniProt P53778); assay: In vitro kinase assay using ADP-Glo, p38γ; format: biochemical; settings: for inhibition of p38γ kinase activity (in words): drugs targeting CDK9, Appendix A Figure 7
# T1 construct: human recombinant p38α, β, γ, or δ protein kinases (active full-length) were acquired from SignalChem; purchased SignalChem
# T1 sequence (P53778 1-367): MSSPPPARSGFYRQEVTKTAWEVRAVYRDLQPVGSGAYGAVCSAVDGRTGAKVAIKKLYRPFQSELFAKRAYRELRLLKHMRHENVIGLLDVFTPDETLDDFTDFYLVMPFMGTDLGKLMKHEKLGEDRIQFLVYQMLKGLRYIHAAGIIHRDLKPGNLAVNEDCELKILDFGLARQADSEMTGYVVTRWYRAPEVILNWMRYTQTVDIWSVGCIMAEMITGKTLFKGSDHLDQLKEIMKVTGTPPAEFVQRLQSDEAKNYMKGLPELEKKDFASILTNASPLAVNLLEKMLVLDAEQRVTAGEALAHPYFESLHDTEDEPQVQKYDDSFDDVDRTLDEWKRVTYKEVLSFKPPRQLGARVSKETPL
# Method: (§1) Therefore, we attempted to screen p38γ inhibitors from […] by performing an in vitro kinase assay using ADP-Glo as readout for activated p38 isoforms.
# (§2) To identify p38γ inhibitors using in vitro kinase assay, a library of kinase inhibitors was screened. The library consists of 244 compounds on three plates (EMD Cat#539744, #539745 and #539746) that are mostly ATP mimics. […] For biochemical screening, in vitro kinase assays were performed using an ADP-Glo kit (Promega, Madison, WI) according to the manufacture’s protocol. […] Briefly, for in vitro assay experiments, human recombinant p38α, β, γ, or δ protein kinases (active full-length) were acquired from SignalChem, and the assay was performed followed protocols from the company. […] Then, ADP-Glo Reagent was incubated in the mixture at room temperature for 40 min, followed by incubation of Kinase Detection Reagent for another 30 min. IC50 values were determined using CalcuSyn software (Biosoft, Cambridge, United Kingdom).
# CTCL [1] = system: CTCL; design: method as in printed at the place; settings: authors' previous studies of F7, no ref printed at the place, read-out: IC50, efficacy in CTCL; cited from earlier work
# Hut78 cells = assay: Combination treatment of FVP and niclosamide, MTS, CI by CompuSyn; format: cell-based; settings: 72 hours
# p38α = biological target: T2, p38α (Homo sapiens, UniProt Q16539); assay: In vitro kinase assay using ADP-Glo, p38α; format: biochemical; settings: cell-free
# T2 construct: human recombinant p38α, β, γ, or δ protein kinases (active full-length) were acquired from SignalChem; purchased SignalChem
# Method: as §1, §2
# p38δ = biological target: T3, p38δ (Homo sapiens, UniProt O15264); assay: In vitro kinase assay using ADP-Glo, p38δ; format: biochemical; settings: cell-free
# T3 construct: human recombinant p38α, β, γ, or δ protein kinases (active full-length) were acquired from SignalChem; purchased SignalChem
# T3 sequence (O15264 1-365): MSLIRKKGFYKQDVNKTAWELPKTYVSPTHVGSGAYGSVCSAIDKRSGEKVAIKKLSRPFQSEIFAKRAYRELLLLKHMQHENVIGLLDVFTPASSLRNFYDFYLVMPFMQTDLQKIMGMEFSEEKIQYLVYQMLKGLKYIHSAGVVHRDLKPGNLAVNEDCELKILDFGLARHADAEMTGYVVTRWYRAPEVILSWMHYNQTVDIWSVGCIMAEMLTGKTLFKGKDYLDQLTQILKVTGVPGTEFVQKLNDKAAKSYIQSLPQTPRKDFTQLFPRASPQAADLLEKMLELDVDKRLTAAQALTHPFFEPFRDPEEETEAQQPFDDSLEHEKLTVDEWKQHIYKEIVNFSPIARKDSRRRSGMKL
# Method: as §1, §2
# Hut78 CTCL cells = assay: cells; format: cell-based; settings: Homo sapiens
# Method: Cell viability was calculated by diluting cell suspensions 1:1 in 0.4% Trypan Blue solution (Sigma, St. Louis, MO) and counting the number of viable cells using a TC20™ automated cell counter (Bio-Rad, Irvine, CA) which automatically excludes the number of non-viable cells stained with trypan blue per total cells. CellTiterGlo Cell Viability Assay (Promega) method was used as described previously. All data points are an average of triplicate experiments.
# CellTiterGlo Cell Viability Assay (Promega) was used to measure viability of Hut78 CTCL cells. […] using an automated BMG PHERAstar plate reader (BMG Labtech, Ortenberg, Germany). IC50 values were determined using CalcuSyn software. All experiments were repeated in three independent experiments and data represented are the average of triplicate experiments.
# CTCL [2] = assay: Efficacy in CTCL (IC50s quoted in the discussion); format: cell-based
# [3] = system: relapsed or refractory mantle cell lymphoma (MCL) and diffuse large B-cell lymphoma (DLBCL); design: method as in NCT00445341; settings: flavopiridol, ref NCT00445341, cited from earlier work
# [4] = system: lymphoma or multiple myeloma; design: method as in NCT00112723; settings: flavopiridol, trial terminated (administratively complete); ref NCT00112723; cited from earlier work
# [5] = system: previously treated chronic lymphocytic leukemia or lymphocytic lymphoma; design: method as in NCT00058240; settings: ref NCT00058240, cited from earlier work
# [6] = system: refractory metastatic pancreatic cancer; design: method as in NCT00331682; settings: docetaxel followed by flavopiridol; ref NCT00331682; cited from earlier work
# [7] = system: advanced ovarian epithelial cancer or primary peritoneal cancer; design: method as in NCT00083122; settings: cisplatin together with flavopiridol, ref NCT00083122, cited from earlier work
# [8] = system: advanced stomach or gastro-esophageal junction cancer; design: method as in NCT00991952; settings: irinotecan hydrochloride with or without alvocidib; ref NCT00991952; cited from earlier work
# [9] = system: newly diagnosed acute myeloid leukemia; design: method as in NCT00407966; settings: alvocidib together with cytarabine and mitoxantrone; ref NCT00407966; cited from earlier work
# [10] = system: newly diagnosed acute myeloid leukemia; design: method as in NCT01349972; settings: alvocidib, cytarabine, and mitoxantrone hydrochloride; ref NCT01349972; cited from earlier work
# [11] = system: newly diagnosed acute myeloid leukemia; design: method as in NCT00795002; settings: ref NCT00795002, cited from earlier work
# [12] = system: relapsed or refractory acute myeloid leukemia; design: method as in NCT00634244; settings: combination chemotherapy regimen, not given; ref NCT00634244; cited from earlier work
# [13] = HuT78, read-out: Cytotoxicity IC50, Hut78 CTCL cells
# [14] = arm 1, alvocidib with cytarabine and mitoxantrone
# [15] = arm 2, alvocidib with cytarabine and mitoxantrone
# T2 sequence (Q16539 whole entry): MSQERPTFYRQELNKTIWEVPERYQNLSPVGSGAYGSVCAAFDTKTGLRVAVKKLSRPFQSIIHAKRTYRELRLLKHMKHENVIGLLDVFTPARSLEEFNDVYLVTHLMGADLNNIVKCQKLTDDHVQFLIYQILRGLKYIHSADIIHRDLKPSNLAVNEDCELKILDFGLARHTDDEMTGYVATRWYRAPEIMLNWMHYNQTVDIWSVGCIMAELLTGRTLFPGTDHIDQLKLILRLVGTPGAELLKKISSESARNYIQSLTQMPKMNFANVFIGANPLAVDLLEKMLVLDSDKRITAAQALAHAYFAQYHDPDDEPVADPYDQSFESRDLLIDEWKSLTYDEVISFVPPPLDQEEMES
smiles,measurement,setting,value
Cc1ccc([N+](=O)[O-])cc1S(=O)(=O)N(C)/N=C/c1cnc2ccc(Br)cn12 [F7],inhibition of p38γ kinase activity (in words),p38γ,inhibit p38γ kinase activity
same,IC50,CTCL [1],29 to 33 nM
O=C(Nc1ccc([N+](=O)[O-])cc1Cl)c1cc(Cl)ccc1O [niclosamide],CI,Hut78 cells; FVP 60.0 nM + Nic 0.2 μM (200 nM),0.6
same,CI,Hut78 cells; FVP 240.0 nM + Nic 0.2 μM (200 nM),0.7
"CN1CC[C@H](c2c(O)cc(O)c3c(=O)cc(-c4ccccc4Cl)oc23)[C@H](O)C1 [FVP, Flavopiridol]",IC50,p38α,1340 nM
same,IC50,p38δ,450 nM
same,IC50,Hut78 CTCL cells; [13],94 nM
same,IC50,"Hut78 CTCL cells; HuT78, read-out: Cytotoxicity IC50, Hut78 cells, abstract",< 100 nM
same,IC50,CTCL [2],120 nM
same,serious adverse events,[3]; patients affected/total,14/28
same,partial response,[3]; patients responding/evaluated,2/26
same,complete response,[3],no complete response
same,partial response,[4],6/43 partial response
same,ORR,[5]; flavopiridol,21/52
same,serious adverse events,[5]; highest dose group,1/16
same,serious adverse events,[5]; lower dose group,11/42
same,median overall survival,[6],4.2 months
same,median time to disease progression,[6],8 weeks
same,serious adverse events,[6],9/9
same,stable disease,[6],3/9
same,complete response,[7]; out of 45 patients,1
same,partial responses,[7]; out of 45 patients,8
same,Median OS,[7],17.5 months
same,median time to progression,[7],4.3 months
same,serious adverse events,[7],23/45
same,partial response,[8],1/13
same,serious adverse events,[8],6/13
same,stable disease,[8],4/13
same,serious adverse events,[9],19/45
same,complete response,[10],76/109
same,serious adverse events,[10],53/114
same,Serious adverse event,[11]; [14],8/39
same,complete response,[11]; [14],24/37
same,Serious adverse event,[11]; [15],8/39
same,complete response,[11]; [15],29/37
same,Serious adverse event,[12],36/36
same,complete remission,[12],10/36
CN1CCC(c2c(O)cc(O)c3c(=O)cc(-c4ccccc4Cl)oc23)C1CO (centres unmarked) [P276-00],inhibition of p38γ kinase activity (in words),p38γ,inhibit p38γ kinase activity
O=c1c(O)c(-c2cc(O)c(O)c(O)c2)oc2cc(O)cc(O)c12 [Myricetin],IC50,"p38γ; cell-free, ADP-Glo",1600 nM
same,targets p38δ isoform (in words),p38δ,targets three isoforms except p38δ
same,IC50,Hut78 CTCL cells; [13],19200 nM
